In US20110183980A1, “O-BENZYL NICOTINAMIDE ANALOGS AS MGLUR5 POSITIVE ALLOSTERIC MODULATORS” (priority 2009, published 2011):

Molecular target: T1, rat mGluR5 (Rattus norvegicus, UniProt P31424)
T1 construct: expressed in transfected cells; host or cells: human embryonic kidney (HEK) cells
Experiment: Potentiation of glutamate response, Ca2+ fluorescence (FDSS) in HEK cells transfected with rat mGluR5
Assay type: cell-based
Conditions: Table 1; potentiation of mGluR5 response to glutamate; read-out: EC50
Procedure: Human embryonic kidney (HEK) cells transfected with rat mGluR5 were plated in clear bottom assay plates for assay in a Functional Drug Screening System (FDSS). The cells were loaded with a Ca^2+-sensitive fluorescent dye (e.g., Fluo-4), and the plates were washed and placed in the FDSS instrument. After establishment of a fluorescence baseline for twelve seconds, the compounds of the present invention were added to the cells, and the response in cells was measured. Five minutes later, an mGluR5 agonist (e.g., glutamate, 3,5-dihydroxyphenylglycine, or quisqualate) was added to the cells, and the response of the cells was measured. Potentiation of the agonist response of mGluR5 by the compounds in the present invention was observed as an increase in response to non-maximal concentrations of agonist (here, glutamate) in the presence of compound compared to the response to agonist in the absence of compound.
The above described assay operated in two modes. In the first mode, a range of concentrations of the present compounds were added to cells, followed by a single fixed concentration of agonist. If a compound acted as a potentiator, an EC50 value for potentiation and a maximum extent of potentiation by the compound at this concentration of agonist was determined by non-linear curve fitting. In the second mode, several fixed concentrations of the present compounds were added to various wells on a plate, followed by a range of concentrations of agonist for each concentration of present compound; the EC50 values for the agonist at each concentration of compound were determined by non-linear curve fitting. A decrease in the EC50 value of the agonist with increasing concentrations of the present compounds (a leftward shift of the agonist concentration-response curve) is an indication of the degree of mGluR5 potentiation at a given concentration of the present compound. An increase in the EC50 value of the agonist with increasing concentrations of the present compounds (a rightward shift of the agonist concentration-response curve) is an indication of the degree of mGluR5 antagonism at a given concentration of the present compound. The second mode also indicates whether the present compounds also affect the maximum response to mGluR5 to agonists.

T1 sequence (P31424 21-1203): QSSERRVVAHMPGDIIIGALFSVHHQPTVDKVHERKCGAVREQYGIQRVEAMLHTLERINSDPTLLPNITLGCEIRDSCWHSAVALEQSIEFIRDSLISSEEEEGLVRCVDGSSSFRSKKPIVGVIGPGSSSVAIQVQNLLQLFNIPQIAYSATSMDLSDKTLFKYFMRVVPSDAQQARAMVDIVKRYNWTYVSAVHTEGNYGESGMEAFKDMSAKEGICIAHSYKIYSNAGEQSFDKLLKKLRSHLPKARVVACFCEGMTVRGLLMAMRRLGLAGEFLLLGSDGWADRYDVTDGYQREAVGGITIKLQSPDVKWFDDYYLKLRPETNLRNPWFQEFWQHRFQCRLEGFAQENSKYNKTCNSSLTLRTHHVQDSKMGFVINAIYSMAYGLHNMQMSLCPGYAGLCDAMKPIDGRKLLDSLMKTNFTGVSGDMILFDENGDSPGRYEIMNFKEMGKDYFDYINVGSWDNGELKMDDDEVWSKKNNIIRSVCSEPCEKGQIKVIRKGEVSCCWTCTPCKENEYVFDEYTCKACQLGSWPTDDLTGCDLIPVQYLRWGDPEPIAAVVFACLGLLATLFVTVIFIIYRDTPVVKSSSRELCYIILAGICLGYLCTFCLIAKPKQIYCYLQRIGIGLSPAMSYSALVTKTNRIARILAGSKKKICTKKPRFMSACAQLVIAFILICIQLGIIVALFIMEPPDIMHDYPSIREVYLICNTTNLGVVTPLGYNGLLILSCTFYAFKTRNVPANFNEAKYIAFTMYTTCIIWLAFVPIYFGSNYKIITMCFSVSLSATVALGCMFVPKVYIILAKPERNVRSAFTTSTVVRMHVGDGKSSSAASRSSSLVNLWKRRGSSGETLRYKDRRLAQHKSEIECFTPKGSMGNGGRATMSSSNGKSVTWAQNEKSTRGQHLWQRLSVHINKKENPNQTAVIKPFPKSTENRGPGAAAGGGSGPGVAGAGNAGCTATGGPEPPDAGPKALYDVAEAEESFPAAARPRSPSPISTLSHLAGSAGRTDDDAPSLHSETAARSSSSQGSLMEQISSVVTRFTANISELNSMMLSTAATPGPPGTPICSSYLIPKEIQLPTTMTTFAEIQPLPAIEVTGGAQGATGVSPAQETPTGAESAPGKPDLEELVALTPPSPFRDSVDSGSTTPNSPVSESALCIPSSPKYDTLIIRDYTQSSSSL

EC50 [nM] | SMILES
120 | O=C(NC1CCCCC1)c1ccc(OCc2ccsc2)nc1 [Example 2.3a.8]
270 | O=C(NC1CCC1)c1ccc(OCc2ccccc2F)nc1 [Example 1.2f.2]
110 | O=C(NC1CCCCC1)c1ccc(OCc2ccccc2F)nc1 [Example 1.2f.3]
1200 | O=C(NC1CCC1)c1ccc(OCc2ccc(F)cc2)nc1 [Example 2.3b.2]
750 | O=C(NC1CCCCC1)c1ccc(OCc2ccc(F)cc2)nc1 [Example 2.3a.6]
230 | CC(C)(C)NC(=O)c1ccc(OCc2ccccc2)nc1 [Example 1.2a.6]
95 | N#Cc1cccc(COc2ccc(C(=O)NC3CCCCC3)cn2)c1 [Example 2.3a.7]
3400 | O=C(NCc1ccccn1)c1ccc(OCc2ccccc2)nc1 [Example 1.2a.12]
1700 | O=C(c1ccc(OCc2cccc(F)c2)nc1)N1CCOCC1 [Example 1.2c.7]
85 | CC(C)(C)CCNC(=O)c1ccc(OCc2cccc(F)c2)nc1 [Example 1.2c.3]
210 | O=C(Nc1ccccc1F)c1ccc(OCc2cccc(F)c2)nc1 [Example 1.2c.9]
2700 | O=C(NCc1ccccn1)c1ccc(OCc2cccc(F)c2)nc1 [Example 1.2c.8]
650 | CCCCOc1ccc(C(=O)Nc2ccccc2)cn1 [Example 1.2j.5]
800 | Cc1nc(OCc2ccncc2)ccc1C(=O)N[C@H](C)C1CCCCC1 [Example 1.2n.2]
1800 | Cc1ccc(COc2ccc(C(=O)NC3CCC3)cn2)cc1 [Example 2.3b.1]
346 | O=C(Nc1ccc(Cl)cn1)c1ccc(OCc2cccc(F)c2)nc1 [Example 1.2c.13]
570 | O=C(Nc1ccc(Cl)cc1F)c1ccc(OCc2cccc(F)c2)nc1 [Example 1.2c.12]
520 | O=C(Nc1nccs1)c1ccc(OCc2ccccc2)nc1 [Example 1.2a.18]
3900 | O=C(NCC1CCOCC1)c1ccc(OCc2ccccc2)nc1 [Example 1.2a.21]
40 | C[C@@H](NC(=O)c1ccc(OCc2ccccc2)nc1)C1CCCCC1 [Example 1.2a.19]

EC50 [nM] | SMILES
76 | O=C(Nc1ccc(F)cc1F)c1ccc(OCc2cccc(F)c2)nc1 [Example 1.2c.21]
1100 | O=C(NCC1CCOCC1)c1ccc(OCc2cccc(F)c2)nc1 [Example 1.2c.17]
3400 | Cc1nc(OCc2ccncc2)ccc1C(=O)NCCC(C)(C)C [Example 1.2n.1]
100 | Cc1cccc(COc2ccc(C(=O)NC3CCCCC3)cn2)c1 [Example 1.2g.3]
2900 | CC(C)(C)CCNC(=O)c1ccc(OCc2cccnc2)nc1 [Example 2.3c.1]
410 | O=C(Nc1ccccn1)c1ccc(OCc2ccccc2)nc1 [Example 1.2a.4]
230 | O=C(NCC1CCCCC1)c1ccc(OCc2cccc(F)c2)nc1 [Example 1.2c.16]
190 | C[C@@H](NC(=O)c1ccc(OCc2cccc(F)c2)nc1)C1CCCCC1 [Example 1.2c.18]
610 | Cc1nc(OCc2cccc(F)c2)ccc1C(=O)NC1CCCCC1 [Example 1.2m.3]
460 | O=C(Nc1cccc(F)c1)c1ccc(OCc2cccc(F)c2)nc1 [Example 1.2c.10]
420 | CC(C)(C)CCNC(=O)c1ccc(OCc2ccncc2)nc1 [Example 2.3c.2]
94 | C[C@@H](NC(=O)c1ccc(OCc2cccc(F)c2)nc1)C1CC1 [Example 1.2c.15]
530 | O=C(Nc1cccc(F)c1)c1ccc(OCc2ccccc2)nc1 [Example 1.2a.16]
2200 | CCCCOc1ccc(C(=O)NC2CCCCCC2)cn1 [Example 1.2j.7]
400 | Cc1nc(OCc2ccccc2)ccc1C(=O)NCCC(C)(C)C [Example 1.2b.3]
140 | O=C(NC1CCCCC1)c1ccc(OCc2ccccc2)nc1 [Example 1.2a.24]
3900 | O=C(NC1CCOCC1)c1ccc(OCc2ccccc2)nc1 [Example 1.2a.23]
240 | Cc1cccc(COc2ccc(C(=O)Nc3ccccn3)cn2)c1 [Example 1.2g.1]
690 | CC(C)(C)CCNC(=O)c1ccc(OCc2ccc(F)cc2)nc1 [Example 1.2d.4]
810 | O=C(Nc1ccc(F)cc1F)c1ccc(OCc2ccncc2)nc1 [Example 1.2i.4]

Same assay, conditions: Table 2; potentiation of mGluR5 response to glutamate; read-out: EC50

EC50 [nM] | SMILES
4200 | CC(COC(C)(C)C)NC(=O)c1ccc(OCc2cccc(F)c2)nc1 (stereo not shown)
690 | Cc1cc(OCc2cccc(F)c2)ncc1C(=O)N[C@H](C)C(C)(C)C
570 | C[C@@H](NC(=O)c1ccc(OCc2ccncc2)nc1)C(C)(C)C
1800 | O=C(NC1CC(O)(C(F)(F)F)C1)c1ccc(OCc2cccc(F)c2)nc1 (stereo not shown)
> 10000 | C[C@@H](NC(=O)c1cnc(OCc2ccncc2)c(C(F)(F)F)c1)C1CCCCC1
> 10000 | CC(C)(C)CCNC(=O)c1ccc(OCc2cc(F)cc(Br)c2)nc1
3600 | Cc1cc(C(=O)N[C@H](C)C2CCCCC2)cnc1OCc1ccncc1
100 | O=C(N[C@@H](C1CC1)C(F)(F)F)c1ccc(OCc2cccc(F)c2)nc1
1900 | C[C@@H](NC(=O)c1cnc(OCc2ccncc2)c(C#N)c1)C1CCCCC1
39 | O=C(NC1C2CC3CC(C2)CC1C3)c1ccc(OCc2ccccc2)nc1 (stereo not shown)
21 | CC(C)[C@@H](C)NC(=O)c1ccc(OCc2cccc(F)c2)nc1
3900 | C[C@@H](NC(=O)c1cnc(OCc2ccncc2)cc1C(F)(F)F)C(C)(C)C
130 | O=C(NCC1CCC1)c1ccc(OCc2ccccc2)nc1
> 10000 | CC(C)(C)OCCNC(=O)c1ccc(OCc2cccc(F)c2)nc1
2800 | O=C(N[C@H]1CCCC[C@@H]1O)c1ccc(OCc2ccccc2)nc1
610 | Cc1cc(OCc2ccncc2)ncc1C(=O)N[C@H](C)C1CCCCC1

EC50 [nM] | SMILES
5300 | Cc1cc(C(=O)NCCC(C)(C)C)cnc1OCc1ccncc1
> 10000 | O=C(NC(c1ccccn1)C(F)(F)F)c1ccc(OCc2cccc(F)c2)nc1 (stereo not shown)
> 10000 | C[C@H](CN1CCC(F)(F)C1)NC(=O)c1ccc(OCc2cccc(F)c2)nc1
> 10000 | COc1nc(OCc2cccc(F)c2)ccc1C(=O)N[C@H](C)C1CCCCC1
1700 | Cc1cc(OCc2ccncc2)ncc1C(=O)NCCC(C)(C)C
3000 | COCC(C)NC(=O)c1ccc(OCc2cccc(F)c2)nc1 (stereo not shown)
370 | C[C@@H](NC(=O)c1ccc(OCc2cccc(F)c2)nc1Cl)C(C)(C)C
> 10000 | C[C@H](CN1CCC(C(F)(F)F)CC1)NC(=O)c1ccc(OCc2cccc(F)c2)nc1
1900 | COC[C@@H](NC(=O)c1ccc(OCc2cccc(F)c2)nc1)C(C)(C)C
5400 | COc1ccc(COc2ccc(C(=O)N[C@H](C)C(C)(C)C)cn2)cc1
1200 | C[C@@H](NC(=O)c1cnc(OCc2cccc(F)c2)cc1C(F)(F)F)C(C)(C)C
920 | Cc1cc(OCc2cccc(F)c2)ncc1C(=O)Nc1ccc(F)cc1F
> 10000 | Cc1cc(C(=O)Nc2ccc(F)cc2F)cnc1OCc1cccc(F)c1
4600 | COc1ccc(COc2ccc(C(=O)N[C@H](C)C(C)(C)C)cn2)cc1F
6.6 | C[C@@H](NC(=O)c1ccc(OCc2cccc(F)c2)nc1)C1CCC1
490 | Cc1cc(C(=O)N[C@H](C)C2CCCCC2)cnc1OCc1cccc(F)c1

Same assay, conditions: read-out: EC50 as an mGluR5 potentiator

EC50 [nM] | SMILES
> 10000 | C[C@H](NC(=O)c1ccc(OCc2ccccc2)nc1)C1CCCCC1 [(S)-6-(benzyloxy)-N-(1-cyclohexylethyl)nicotinamide]
